Holding throughout (assay type): physicochemical
Data set [1] is described as follows: In vitro dissolution test in 500 mL Model Fasted Duodenum (MFD) solution (Example 2). The note with it: 500 mL MFD solution. On the procedure: (§1) Phosphate buffered saline solution (PBS) was prepared comprising 20 mM sodium phosphate, […] potassium phosphate, 87 mM NaCl and 0.2 mM KCl, adjusted to pH 6.5. Four in vitro dissolution tests were performed in 35 mL of the PBS solution at 37°C to test the effectiveness of drug release from the dosage composition of the invention as measured against Controls A, B and C. Drug concentrations over time were determined by periodically withdrawing samples of each of the four solutions, centrifuging the samples for 1 minute at 13,000 rpm to pellet any undissolved drug, sampling the supernate, and analyzing the sample by High Performance Liquid Chromatography (HPLC) to thereby calculate drug concentrations.
(§2) A Model Fasted Duodenum (MFD) solution which mimics the chemical environment in the small intestine was prepared, comprising the PBS solution described in Example 1 mixed with 14.7 mM sodium taurocholic acid and 2.8 mM of 1-palmitoyl-2-oleyl-sn-glycero-3-phosphocholine. Four in vitro dissolution tests were performed in 500 mL of the so-prepared MFD solution to test the effectiveness of drug release from the dosage composition of the invention against Controls D, E and F. The sampling and analysis were carried out as in Example 1.

Data set [2] in a line: In vitro dissolution test in 35 mL PBS solution (Example 1). The note with it: 35 mL PBS pH 6.5, 37°C. How it is done: as §1
Data set [3] in a line: Water solubility of the drug.
The nature of data set [4]: In vitro dissolution test in 40 mL PBS solution (Reference Example 3). The note with it: 37°C. On the procedure:
as §1
As a control (Control G), tablets were similarly prepared except rather than using the drug/CAP solid dispersion, a mixture of 1 part crystalline drug to 3 parts CAP was used. As a second control (Control H), 26 mg of crystalline drug alone was used. As a third control (Control I), 105.3 mg of the solid dispersion with no erodible matrix was used. In order to determine the drug release profile of the dosage form of the present invention as compared to the controls, in vitro dissolution tests in 40 mL of the PBS solution of Example 1 at 37°C were performed as in Example 1.

Data set [5] in a line: In vitro dissolution test in 30 ml MFD solution (Reference Example 5). On the procedure: as §1, §2
An MFD solution was prepared as in Example 2. Four in vitro dissolution tests were performed in 30 ml of the MFD solution to test the effectiveness of drug release from the dosage composition of the invention against Controls J, K and L. The sampling and analysis were carried out as in Example 1.

The structures appear in SMILES notation. ≈ marks a conversion by molar mass, not a printed value.

`CON(C)C(=O)C(O)[C@H](Cc1ccccc1)NC(=O)c1cc2cc(Cl)ccc2[nH]1` (stereo in doubt) [Control E, [R-(R*S*)]-5 chloro-N-[2-hydroxy-3-[(methoxymethylamino)-3-oxo-1(phenylmethyl)propyl]propyl]-1H-indole-2-carboxymide]: the AUC worked out at 0 µg·min/mL in data set [1] (time 0 min); 21 µg·min/mL in data set [1] (time 10 min); 72 µg·min/mL in data set [1] (time 20 min); 172 µg·min/mL in data set [1] (time 40 min); 795 µg·min/mL in data set [1] (time 90 min); 1281 µg·min/mL in data set [1] (time 120 min). In addition, the AUC amounted to 2219 µg·min/mL in data set [1] (time 180 min); 2992 µg·min/mL in data set [1] (time 240 min); 4030 µg·min/mL in data set [1] (time 360 min); 5756 µg·min/mL in data set [1] (time 525 min); 7525 µg·min/mL in data set [1] (time 720 min). Also, the “[Drug]” value in data set [1] (time 0 min) turned out to be 0.0 µg/mL; in data set [1] (time 10 min), 6.9 µg/mL; in data set [1] (time 20 min), 3.2 µg/mL; in data set [1] (time 40 min) it was 6.8 µg/mL; in data set [1] (time 90 min), 18.1 µg/mL; in data set [1] (time 120 min) it was 14.3 µg/mL. Moreover, the “[Drug]” value in data set [1] (time 180 min) was 17.0 µg/mL; in data set [1] (time 240 min), 8.8 µg/mL; in data set [1] (time 360 min), 8.5 µg/mL; in data set [1] (time 525 min) it was 10.7 µg/mL; in data set [1] (time 720 min), 9.0 µg/mL; in data set [1] (time 1200 min) it was 8.0 µg/mL.
`O=C(N[C@@H](Cc1ccccc1)[C@@H](O)C(=O)N1C[C@@H](O)[C@@H](O)C1)c1cc2cc(Cl)ccc2[nH]1` [Control B, 5-chloro-1H-indole-2-carboxylic acid [(1S) -benzyl-3-((3R,4S) -dihydroxypyrrolidin-1-yl-) - (2R) -hydroxy-3-oxypropyl]amide]: the area under the curve (AUC) in data set [2] (time 0 min) was 0 µg·min/mL; in data set [2] (time 4 min) it was 180 µg·min/mL; in data set [2] (time 10 min), 754 µg·min/mL; in data set [2] (time 20 min), 1753 µg·min/mL; in data set [2] (time 40 min), 4402 µg·min/mL; in data set [2] (time 90 min), 12252 µg·min/mL. Also, the AUC stood at 16937 µg·min/mL in data set [2] (time 120 min); 25991 µg·min/mL in data set [2] (time 180 min); 34362 µg·min/mL in data set [2] (time 240 min); 52528 µg·min/mL in data set [2] (time 360 min); 80574 µg·min/mL in data set [2] (time 525 min); 113346 µg·min/mL in data set [2] (time 720 min). Moreover, the “[Drug]” value turned out to be 0.0 µg/mL in data set [2] (time 0 min); 90.1 µg/mL in data set [2] (time 4 min); 101.0 µg/mL in data set [2] (time 10 min); 98.8 µg/mL in data set [2] (time 20 min); 166.1 µg/mL in data set [2] (time 40 min); 147.9 µg/mL in data set [2] (time 90 min). In addition, the “[Drug]” value in data set [2] (time 120 min) is on record as 164.5 µg/mL; in data set [2] (time 180 min), 137.3 µg/mL; in data set [2] (time 240 min), 141.8 µg/mL; in data set [2] (time 360 min) it was 161.0 µg/mL; in data set [2] (time 525 min), 179.0 µg/mL; in data set [2] (time 720 min), 157.2 µg/mL.
Compound `CON(C)C(=O)[C@H](O)[C@H](Cc1ccccc1)NC(=O)c1cc2cc(Cl)ccc2[nH]1` [[R-(R*S*)]-5 chloro-N-[2-hydroxy-3-[(methoxymethylamino)-3-oxo-1(phenylmethyl)propyl]propyl]-1H-indole-2-carboxymide] registered a solubility in data set [3] of 1 µg/mL (≈ 2.4 µM).
On to `O=C(N[C@@H](Cc1ccccc1)[C@@H](O)C(=O)N1C[C@@H](O)[C@@H](O)C1)c1cc2cc(Cl)ccc2[nH]1` [Control H, 5-chloro-1H-indole-2-carboxylic acid [(1S) -benzyl-3-((3R,4S) -dihydroxypyrrolidin-1-yl-) - (2R) -hydroxy-3-oxypropyl]amide], for which the AUC in data set [4] (time 0 min) was 0 µg·min/mL; in data set [4] (time 10 min), 0 µg·min/mL; in data set [4] (time 20 min), 323 µg·min/mL; in data set [4] (time 40 min), 1513 µg·min/mL; in data set [4] (time 90 min) it was 3906 µg·min/mL; in data set [4] (time 120 min) it was 9587 µg·min/mL. Also, the AUC in data set [4] (time 180 min) was determined as 13186 µg·min/mL; in data set [4] (time 240 min), 21392 µg·min/mL; in data set [4] (time 360 min), 31055 µg·min/mL; in data set [4] (time 540 min), 49395 µg·min/mL; in data set [4] (time 720 min), 73701 µg·min/mL. Also, the “[Drug]” value in data set [4] (time 0 min) was 0.0 µg/mL; in data set [4] (time 10 min), 107.8 µg/mL; in data set [4] (time 20 min), 130.1 µg/mL; in data set [4] (time 40 min), 109.1 µg/mL; in data set [4] (time 90 min), 118.1 µg/mL; in data set [4] (time 120 min), 121.8 µg/mL. For the same compound, the “[Drug]” value in data set [4] (time 180 min) is on record as 151.7 µg/mL; in data set [4] (time 240 min) it was 170.4 µg/mL; in data set [4] (time 360 min), 135.3 µg/mL; in data set [4] (time 540 min), 134.8 µg/mL; in data set [4] (time 720 min), 168.3 µg/mL.
`CN[C@H]1CC[C@@H](c2ccc(Cl)c(Cl)c2)c2ccccc21.Cl` (relative stereo) [(1S-cis)-4-(3,4-dichlorophenyl)-1,2,3,4-tetrahydro-N-methyl-1-napthalenamine hydrochloride] gave a water solubility in data set [3] of 70 µg/mL.
With `CN[C@H]1CC[C@@H](c2ccc(Cl)c(Cl)c2)c2ccccc21.Cl` (relative stereo) [Control K, (1S-cis)-4-(3,4-dichlorophenyl)-1,2,3,4-tetrahydro-N-methyl-1-napthalenamine hydrochloride], the AUC in data set [5] (time 0 min) was 0 µg·min/mL; in data set [5] (time 10 min), 1073 µg·min/mL; in data set [5] (time 20 min) it was 5459 µg·min/mL; in data set [5] (time 40 min) it was 16706 µg·min/mL; in data set [5] (time 90 min), 37083 µg·min/mL; in data set [5] (time 120 min), 40231 µg·min/mL. The AUC in data set [5] (time 240 min) was determined as 52796 µg·min/mL; in data set [5] (time 360 min) it was 70528 µg·min/mL; in data set [5] (time 540 min), 108647 µg·min/mL. The “[Drug]” value is 0 µg/mL in data set [5] (time 0 min); 0 µg/mL in data set [5] (time 10 min); 358 µg/mL in data set [5] (time 20 min); 520 µg/mL in data set [5] (time 40 min); 605 µg/mL in data set [5] (time 90 min); 210 µg/mL in data set [5] (time 120 min). Moreover, the “[Drug]” value in data set [5] (time 240 min) was 130 µg/mL; in data set [5] (time 360 min), 159 µg/mL; in data set [5] (time 540 min), 136 µg/mL; in data set [5] (time 1200 min), 128 µg/mL.

The values above are taken from patent publication EP1027887B1, “Matrix controlled release device” (Pfizer Products Inc., priority 1999, dated 2000).
